In ChEMBL document CHEMBL5608177, “Antitumor activity and transcriptome sequencing (RNA-seq) analyses of hepatocellular carcinoma cells in response to exposure triterpene-nucleoside conjugates” (Eur J Med Chem, 2024):
Activity calls are given as the source filed them. The calls are words filed in the database; no cut-off is given here.

Legend:
HeLa = test: Antiproliferative activity against human HeLa cells assessed as inhibition of cell growth incubated for 48 hrs by CCK-8 reagent based spectrophotometric analysis; format: functional
A549 = test: Antiproliferative activity against human A549 cells assessed as inhibition of cell growth incubated for 48 hrs by CCK-8 reagent based spectrophotometric analysis; format: functional; conditions: A549, 48 h
MCF7 = test: Antiproliferative activity against human MCF7 cells assessed as inhibition of cell growth incubated for 48 hrs by CCK-8 reagent based spectrophotometric analysis; format: functional; conditions: MCF7, 48 h
PC-3 = test: Antiproliferative activity against human PC-3 cells assessed as inhibition of cell growth incubated for 48 hrs by CCK-8 reagent based spectrophotometric analysis; format: functional; conditions: PC-3, 48 h
KYSE-150 cell line = test: Antiproliferative activity against human KYSE-150 cell line assessed as inhibition of cell growth incubated for 48 hrs by CCK-8 reagent based spectrophotometric analysis; format: functional; conditions: KYSE-150, 48 h
HepG2 = test: Antiproliferative activity against human HepG2 cells assessed as inhibition of cell growth incubated for 48 hrs by CCK-8 reagent based spectrophotometric analysis; format: functional; conditions: HepG2, 48 h
SMMC-7721 [1] = test: Antiproliferative activity against human SMMC-7721 cells assessed as inhibition of cell growth incubated for 48 hrs by CCK-8 reagent based spectrophotometric analysis; format: functional; conditions: SMMC-7721, 48 h
SW-620 = test: Antiproliferative activity against human SW620 cells assessed as inhibition of cell growth incubated for 48 hrs by CCK-8 reagent based spectrophotometric analysis; format: functional; conditions: SW-620, 48 h
SMMC-7721 [2] = test: Antitumor activity against human SMMC-7721 cells xenografted in BALB/c mouse assessed as inhibition of tumor growth at 25 mg/kg,ip administrated 3 times weekly for 3 weeks relative to control; format: functional; parameters: scale not given: the % may be the effect or the level left
SMMC-7721 [3] = test: Antitumor activity against human SMMC-7721 cells xenografted in BALB/c mouse assessed as reduction in tumor weight at 25 mg/kg,ip administrated 3 times weekly for 3 weeks (reference value: 0.573 +/- 0.137 g); format: functional
SMMC-7721 [4] = test: Antitumor activity against human SMMC-7721 cells xenografted in BALB/c mouse assessed as reduction in tumor weight at 25 mg/kg,ip administrated 3 times weekly for 3 weeks; format: functional, organism-based
SMMC-7721 [5] = test: Antitumor activity against human SMMC-7721 cells xenografted in BALB/c mouse assessed as reduction in tumor growth at 25 mg/kg,ip administrated 3 times weekly for 3 weeks; format: functional, organism-based
[6] = Aqueous solubility of the compound in […] by HPLC analysis; format: physicochemical

C=C(C)[C@@H]1CC[C@]2(C(=O)OC)CC[C@]3(C)[C@H](CC[C@@H]4[C@@]5(C)C[C@@H](Cc6cn([C@]7(CO)O[C@@H](n8ccc(N)nc8=O)[C@@H](F)[C@@H]7O)nn6)[C@H](O)C(C)(C)[C@@H]5CC[C@]43C)[C@@H]12
IC50 (HeLa): 24.1 µM
IC50 (A549): > 100 µM
IC50 (MCF7): 70.2 µM
IC50 (PC-3): > 100 µM
IC50 (KYSE-150 cell line): 29.3 µM
IC50 (HepG2): 55.8 µM
IC50 (SMMC-7721 [1]): 70.2 µM
IC50 (SW-620): 18 µM

C=C(C)[C@@H]1CC[C@]2(C(=O)O)CC[C@]3(C)[C@H](CC[C@@H]4[C@@]5(C)C[C@@H](Cc6cn([C@]7(CO)O[C@@H](n8ccc(N)nc8=O)[C@@H](F)[C@@H]7O)nn6)[C@H](O)C(C)(C)[C@@H]5CC[C@]43C)[C@@H]12
IC50 (HeLa): > 100 µM
IC50 (A549): > 100 µM
IC50 (MCF7): > 100 µM
IC50 (PC-3): > 100 µM
IC50 (KYSE-150 cell line): > 100 µM
IC50 (HepG2): > 100 µM
IC50 (SMMC-7721 [1]): > 100 µM
IC50 (SW-620): > 100 µM

C=C(C)[C@@H]1CC[C@]2(C(=O)OC)CC[C@]3(C)[C@H](CC[C@@H]4[C@@]5(C)C[C@@H](Cc6cn([C@]7(CO)O[C@@H](n8ccc(O)nc8=O)[C@H](O)[C@@H]7O)nn6)[C@H](O)C(C)(C)[C@@H]5CC[C@]43C)[C@@H]12
IC50 (HeLa): 20 µM
IC50 (A549): 53.2 µM
IC50 (MCF7): 26.6 µM
IC50 (PC-3): 41 µM
IC50 (KYSE-150 cell line): 20.3 µM
IC50 (HepG2): 44.6 µM
IC50 (SMMC-7721 [1]): 37.3 µM
IC50 (SW-620): 25.9 µM

C=C(C)[C@@H]1CC[C@]2(C(=O)OC)CC[C@]3(C)[C@H](CC[C@@H]4[C@@]5(C)C[C@@H](Cc6cn([C@]7(CO)O[C@@H](n8ccc(O)nc8=O)[C@@H](F)[C@@H]7O)nn6)[C@H](O)C(C)(C)[C@@H]5CC[C@]43C)[C@@H]12
IC50 (HeLa): 15.1 µM
IC50 (A549): 36.4 µM
IC50 (MCF7): 23.3 µM
IC50 (PC-3): 23.5 µM
IC50 (KYSE-150 cell line): 10.7 µM
IC50 (HepG2): 37.5 µM
IC50 (SMMC-7721 [1]): 24.5 µM
IC50 (SW-620): 15.2 µM

C=C(C)[C@@H]1CC[C@]2(C(=O)O)CC[C@]3(C)[C@H](CC[C@@H]4[C@@]5(C)C[C@@H](Cc6cn([C@]7(CO)O[C@@H](n8ccc(O)nc8=O)[C@H](O)[C@@H]7O)nn6)[C@H](O)C(C)(C)[C@@H]5CC[C@]43C)[C@@H]12
IC50 (HeLa): > 100 µM
IC50 (A549): > 100 µM
IC50 (MCF7): > 100 µM
IC50 (PC-3): > 100 µM
IC50 (KYSE-150 cell line): > 100 µM
IC50 (HepG2): > 100 µM
IC50 (SMMC-7721 [1]): > 100 µM
IC50 (SW-620): > 100 µM

C=C(C)[C@@H]1CC[C@]2(C(=O)OC)CC[C@]3(C)[C@H](CC[C@@H]4[C@@]5(C)C[C@@H](Cc6cn([C@]7(CO)O[C@@H](n8ccc(N)nc8=O)[C@@H](F)[C@@H]7O)nn6)C(=O)C(C)(C)[C@@H]5CC[C@]43C)[C@@H]12
IC50 (HeLa): 28.2 µM
IC50 (A549): > 100 µM
IC50 (MCF7): 61.4 µM
IC50 (PC-3): > 100 µM
IC50 (KYSE-150 cell line): 19.2 µM
IC50 (HepG2): 69.9 µM
IC50 (SMMC-7721 [1]): 52.7 µM
IC50 (SW-620): 31.2 µM

C=C(C)[C@@H]1CC[C@]2(C(=O)OC)CC[C@]3(C)[C@H](CC[C@@H]4[C@@]5(C)C[C@@H](Cc6cn([C@]7(CO)O[C@@H](n8ccc(N)nc8=O)[C@H](O)[C@@H]7O)nn6)[C@H](O)C(C)(C)[C@@H]5CC[C@]43C)[C@@H]12
IC50 (HeLa): 46.2 µM
IC50 (A549): > 100 µM
IC50 (MCF7): 87.6 µM
IC50 (PC-3): > 100 µM
IC50 (KYSE-150 cell line): 20.7 µM
IC50 (HepG2): 85.7 µM
IC50 (SMMC-7721 [1]): 67.3 µM
IC50 (SW-620): 48.9 µM

C=C(C)[C@@H]1CC[C@]2(C(=O)OC)CC[C@]3(C)[C@H](CC[C@@H]4[C@@]5(C)C[C@@H](Cc6cn([C@H]7C[C@H](n8cc(C)c(O)nc8=O)O[C@@H]7CO)nn6)[C@H](O)C(C)(C)[C@@H]5CC[C@]43C)[C@@H]12
IC50 (HeLa): 20.6 µM
IC50 (A549): 41.2 µM
IC50 (MCF7): 39.4 µM
IC50 (PC-3): 18.1 µM
IC50 (KYSE-150 cell line): 7.82 µM
IC50 (HepG2): 19.5 µM
IC50 (SMMC-7721 [1]): 32.7 µM
IC50 (SW-620): 8.75 µM

C=C(C)[C@@H]1CC[C@]2(C(=O)O)CC[C@]3(C)[C@H](CC[C@@H]4[C@@]5(C)C[C@@H](Cc6cn([C@H]7C[C@H](n8cc(C)c(O)nc8=O)O[C@@H]7CO)nn6)[C@H](O)C(C)(C)[C@@H]5CC[C@]43C)[C@@H]12
IC50 (HeLa): 16.4 µM
IC50 (A549): 64.4 µM
IC50 (MCF7): 7.01 µM
IC50 (PC-3): 26.6 µM
IC50 (KYSE-150 cell line): 7.53 µM
IC50 (HepG2): 38.4 µM
IC50 (SMMC-7721 [1]): 15 µM
IC50 (SW-620): 17.5 µM

C=C(C)[C@@H]1CC[C@]2(C(=O)OC)CC[C@]3(C)[C@H](CC[C@@H]4[C@@]5(C)C[C@@H](Cc6cn([C@]7(CO)O[C@@H](n8ccc(N)nc8=O)[C@H](O)[C@@H]7O)nn6)C(=O)C(C)(C)[C@@H]5CC[C@]43C)[C@@H]12
IC50 (HeLa): 40.4 µM
IC50 (A549): > 100 µM
IC50 (MCF7): > 100 µM
IC50 (PC-3): > 100 µM
IC50 (KYSE-150 cell line): 68.7 µM
IC50 (HepG2): > 100 µM
IC50 (SMMC-7721 [1]): 68.5 µM
IC50 (SW-620): 35.8 µM

C=C(C)[C@@H]1CC[C@]2(C(=O)OC)CC[C@]3(C)[C@H](CC[C@@H]4[C@@]5(C)C[C@@H](Cc6cn([C@]7(CO)O[C@@H](n8ccc(O)nc8=O)[C@H](O)[C@@H]7O)nn6)C(=O)C(C)(C)[C@@H]5CC[C@]43C)[C@@H]12
IC50 (HeLa): 27.9 µM
IC50 (A549): 70.8 µM
IC50 (MCF7): 55.3 µM
IC50 (PC-3): 45.5 µM
IC50 (KYSE-150 cell line): 36.4 µM
IC50 (HepG2): 62.9 µM
IC50 (SMMC-7721 [1]): 40.5 µM
IC50 (SW-620): 19.1 µM

Cc1cn([C@H]2C[C@H](N=[N+]=[N-])[C@@H](CO)O2)c(=O)[nH]c1=O [ZIDOVUDINE]
IC50 (HeLa): > 100 µM
IC50 (A549): 20.7 µM
IC50 (MCF7): > 100 µM
IC50 (PC-3): > 100 µM
IC50 (KYSE-150 cell line): > 100 µM
IC50 (HepG2): > 100 µM
IC50 (SMMC-7721 [1]): > 100 µM
IC50 (SW-620): > 100 µM

C=C(C)[C@@H]1CC[C@]2(C(=O)O)CC[C@]3(C)[C@H](CC[C@@H]4[C@@]5(C)C[C@@H](Cc6cn([C@]7(CO)O[C@@H](n8ccc(N)nc8=O)[C@H](O)[C@@H]7O)nn6)[C@H](O)C(C)(C)[C@@H]5CC[C@]43C)[C@@H]12
IC50 (HeLa): 15.3 µM
IC50 (A549): > 100 µM
IC50 (MCF7): 62 µM
IC50 (PC-3): 86.2 µM
IC50 (KYSE-150 cell line): 42.4 µM
IC50 (HepG2): 72.7 µM
IC50 (SMMC-7721 [1]): 17 µM
IC50 (SW-620): 28.1 µM

C=C(C)[C@@H]1CC[C@]2(C(=O)O)CC[C@]3(C)[C@H](CC[C@@H]4[C@@]5(C)C[C@@H](Cc6cn([C@]7(CO)O[C@@H](n8ccc(O)nc8=O)[C@@H](F)[C@@H]7O)nn6)[C@H](O)C(C)(C)[C@@H]5CC[C@]43C)[C@@H]12
IC50 (HeLa): > 100 µM
IC50 (A549): > 100 µM
IC50 (MCF7): > 100 µM
IC50 (PC-3): > 100 µM
IC50 (KYSE-150 cell line): > 100 µM
IC50 (HepG2): > 100 µM
IC50 (SMMC-7721 [1]): > 100 µM
IC50 (SW-620): > 100 µM

CC(=O)O[C@H]1C(=O)[C@@]2(C)[C@H]([C@H](OC(=O)c3ccccc3)[C@]3(O)C[C@H](OC(=O)[C@H](O)[C@@H](NC(=O)c4ccccc4)c4ccccc4)C(C)=C1C3(C)C)[C@]1(OC(C)=O)CO[C@@H]1C[C@@H]2O [PACLITAXEL]
Activity (SMMC-7721 [2]): 61.6%
Activity (SMMC-7721 [3]): 0.22 g
Activity (SMMC-7721 [4]): inactive
Activity (SMMC-7721 [5]): inactive

C=C(C)[C@@H]1CC[C@]2(C(=O)O)CC[C@]3(C)[C@H](CC[C@@H]4[C@@]5(C)CC[C@H](O)C(C)(C)[C@@H]5CC[C@]43C)[C@@H]12 [BETULINIC ACID]
IC50 (HeLa): 31.3 µM
IC50 (A549): 69.8 µM
IC50 (MCF7): 54.8 µM
IC50 (PC-3): > 100 µM
solubility [6]: < 0.11 µM
IC50 (KYSE-150 cell line): 23.9 µM
IC50 (HepG2): 40 µM
IC50 (SMMC-7721 [1]): 43.6 µM
IC50 (SW-620): 54.3 µM
